Columns and labels:
[1] = system: mouse embryonic fibroblasts (MEFs); assay: Direct cardiac reprogramming of fibroblasts, contracting patch/colony counts; type: cell-based; conditions: standard reprogramming media with LIF for the first nine days
Source text: Having successfully initiated the early cardiogenic program in MEFs, we next sought to induce robust activation of mid-stage cardiac gene expression and to ultimately generate spontaneously contracting patches of cardiac cells, a hallmark of terminal differentiation that is easily observed and quantified. To this end, we treated three-factor transduced MEFs with chemically defined media (CDM) as well as cytokines and small molecules that might enhance cardiogenesis by regulating TGFβ, bone morphogenetic protein (BMP), Hedgehog, Wnt, or Notch pathway activity. Treatments were done individually and in combination, and at different times during the reprogramming process. Despite the general unsuitability of the resulting protocol for iPSC generation, we also explored whether small-molecule inhibition of JAK-STAT (Janus kinase-signal transducer and activator of transcription), PI3K (phosphatidylinositol 3-kinase), or Wnt signalling during the early stages of the protocol might boost the effectiveness of cardiomyogenesis by preventing even a small number of iPSC intermediates from forming. Finally, we experimented with a more gradual transition between different media by lowering FBS concentration step-wise in increments of 1-4% over 3-6 days (immediately prior to switching to CDM). […] During this initial nine-day period, the small-molecule JAK inhibitor JD is continuously kept in the media at a concentration of 0.5 μM. From day nine onwards, the cells are cultured in CDM, with the cardioinductive growth factor BMP4 (Snyder, A. et al., J Cell Biochem 93, 224-32 (2004)) being added at 20 ng/ml for the first five days (FIG. 1b).
All MEFs (129S2/SvPasCrlf) were derived according to WiCell protocols (https://www.wicell.org/index.php?option=com_docman&task=doc_download&gid=687). TTFs were a kind gift of Dr. Hans Schöler. Secondary MEFs were derived as previously described (Wernig, M. et al., Nat Biotechnol 26, 916-24 (2008)). All results were initially obtained and confirmed with the Nebulette-LacZ MEFs; to ensure reproducibility and minimize inter-experimental variation, reported results almost exclusively derive from experiments utilizing secondary dox-inducible MEFs using the optimum induction period. MEFs were initially passaged on gelatin-coated (0.1% for 2 hours at 37° C.) tissue culture dishes in DMEM supplemented with 10% FBS, 2 mM Glutamax and 0.1 mM NEAA (all components from Invitrogen, Carlsbad, Calif.). Prior to viral transduction, cells were seeded onto Matrigel (BD Biosciences, Franklin Lakes, N.J.) or Geltrex (Invitrogen)-coated plates (1:40, overnight at 4° C.) at 3.5×10^4 cells per well of a six well plate (7×10^4 cells for TTFs) in the same media. […]

secondary MEFs = assay: Neural transdifferentiation of secondary MEFs with exposure to LIF-containing medium; type: cell-based, mouse
Experimental: NGFP1 Dox-inducible iPS cells (Hanna J. et al., Nature (2009); Hanna, J. et al., Cell 133(2):250-264 (2008)) (Stemgent) were injected into C57BL/6 blastocysts and implanted into surrogate mice (CD1, Harlan). Chimeric embryos were isolated at E12.5-13.5. Heads, developing organs and spinal cords were carefully removed from the embryos and MEFs were prepared and selected as previously described (Hanna J. et al., Nature (2009); Wernig, M. et al., Nat Biotechnol 26(8):916-924 (2008); Hanna, J. et al., Cell 133(2):250-264 (2008)). For reprogramming, secondary MEFs (p3-4) were plated on Geltrex-coated culture dishes at 1.5-2×10^4 cells/cm^2 in MEF medium (Dullbecco's modified Eagle's medium supplemented with 10% fetal bovine serum, 0.1 mM non-essential amino acids, and 2 mM Glutamax). Doxycycline (Sigma-Aldrich, 2-8 μg/ml) treatment was initiated the next morning (Day 0) and continued until the designated day(s). Cells were cultured in MEF medium for an additional day and changed to reprogramming initiation medium (RepM-Ini; knock-out DMEM supplemented with 10% knock-out serum replacer, 5% FBS, 0.1 mM NEAA, 2 mM Glutamax, and 0.055 mM β-mercaptoethanol) for three days. For neural stem/progenitor reprogramming, the medium was changed into neural reprogramming medium (RepM-Neural; Advanced DMEM/F12 and Neurobasal medium were mixed by 1:1 and supplemented with 0.05% bovine serum albumin, 1×N2, 1×B27, 2 mM Glutamax, 0.11 mM β-mercaptoethanol, 20 ng/ml FGF2, 2 ng/ml FGF4, and 20 ng/ml EGF). RepM-Pluri is the same as RepM-Ini, with the addition of 1000 units/ml LIF (Millipore).
Total RNA was extracted from samples at the designated time points using the RNeasy Plus Mini Kit with QiaShredder (Qiagen). One microgram of total RNA per sample was reverse-transcribed using the iScript cDNA synthesis kit (Bio-Rad) and the cDNA was diluted with 130 ul of water. 1/50 of the diluted cDNA was used for quantitative PCR with iQ SYBR Green Supermix on the CFX96 system (Bio-Rad). All qPCR reactions were done in duplicate or triplicate, and the expression data were normalized to both Gapdh and β-actin expression using CFX manager software (Bio-Rad). All primer sequences are listed in previous publications (Hanna J. et al., Nature (2009); Wernig, M. et al., Nat Biotechnol 26(8):916-924 (2008); Greber, B. et al., Cell Stem Cell 6(3):215-226 (2010)).
Samples were washed once with D-PBS (Invitrogen, without Ca^2+ and Mg^2+) and were fixed with a 4% pure-formaldehyde solution (Electron Microscopy Sciences) with 0.15% picric acid (Sigma-Aldrich) in D-PBS for 20 min, followed by three washes with D-PBS. Blocking and permeabilization were done with a 3% BSA (Jackson ImmunoResearch) and 0.3% Triton X-100 (Sigma-Aldrich) solution in D-PBS for 1 hr at room temperature. […]

[2] = system: spontaneously contracting colonies (transdifferentiated cardiomyocytes); assay: Calcium imaging and testing of chronotropic agents; type: cell-based, mouse; conditions: 1 μM isoproterenol or 10 μM carbachol; 10 minutes after addition
Experimental: Cells were loaded with Fluo-4-AM (5 μM, 30 min, 37° C.) (F14201, Invitrogen), and imaged with an Olympus Fluoview 1000 inverted confocal microscope with a 40× oil immersion lens (numerical aperture 1.3). Line scan imaging mode was used to measure spontaneous Ca2^+ transients at 37° C. Image processing and data analysis were performed as previously described (Ouyang, K. et al., J Biol Chem 280, 15898-902 (2005)). For drug testing, all measurements were repeated 10 minutes after the addition of isoproterenol (1 μM; Sigma) or Carbachol (10 μM; Sigma-Aldrich).

R1 ES cells [3] = assay: QRT-PCR of markers in differentiating ES cells; type: cell-based, mouse; conditions: treated day 0-2, harvested day 4.5
Experimental: To further analyze the mechanism of action of the cardiogenic effect seen with these molecules, QRT-PCR was carried out on cells treated from day 0-2 and harvested at day 4.5.
QRT-PCR was carried out to observe the induction of cardiomyogenesis at the transcript level. At day 5, when A83-01 treatment begins, the predominant state is that of a developed primitive streak type population that is yet to display robust expression of markers of cardiac precursors such as Nkx2.5, Isl-1, and c-kit.
Total RNA from each sample was prepared from 5×10^4 cells using RNeasy mini kit (Qiagen). Reverse transcription was carried out by using Reverse Transcription System (Promega) and PCR performed using PCR Super Mix (Invitrogen).

R1 ES cells [4] = assay: Serum-free monolayer cardiac differentiation of ES cells, beating colonies; type: cell-based, mouse; conditions: early treatment window
Experimental: Having identified the first serum-free monolayer condition for cardiac differentiation of ES cells, we sought to test its efficacy as a platform to discover regulators of cardiomyogenesis. A collection of approximately 200 small molecules and growth factors reported to be influential in developmental processes were assembled. R1 ES cells were grown and plated for differentiation on Matrigel in 24-well plates using the media and growth factors described above. The screening collection was then added and removed from each well at specific time points in order to account for different developmental time windows. The collection was screened at days 0-2, 2-5, and 5-7.
Cells are plated at a density of 200,000 cells/well of a 6-well plate in 2.5 ml of ESGM. 6-well plates are coated overnight at 4° C. with 1 ml of Matrigel (BD Bioscience) diluted 50× from stock concentration. 24 hours after plating, or after sufficient colony size was achieved, cells are switched into chemically defined medium (CDM) and treated with 4 uM BIO (Calbiochem) and 20 ng/ml BMP-4 (R&D). CDM contains RPMI 1640, 0.5×N2, 1×B27 (without Vitamin A), 0.5× Glutamax, 0.55 mM beta-mercaptoethanol, 1× non-essential amino acids, 1× nucleosides. At Day 2, medium is changed, and again CDM containing 4 uM BIO with 20 ng/ml BMP-4 is added to the cells. At Day 5, cells are washed once with PBS and medium is changed to CDM containing 100 ng/ml Dkk-1 (R&D). At Day 7, medium is changed, and again CDM containing 100 ng/ml Dkk-1 is added to the cells. At Day 10, cells are trypsinized (0.05% trypsin) (Approximately 5 minutes at 37° C., or until cells begin to detach) and replated onto gelatin coated 6-well plates in CDM with no additional growth factors. By this time, the cells will have formed tight colonies that will be difficult to disrupt (Supplementary FIG. 2b). […] The trypsin is used primarily to detach the cells rather than to dissociate them to a single cell suspension. It is preferable for the colonies to remain intact. The trypsin is briefly quenched with MEF media, cells are centrifuged, and resuspended in CDM for plating. Medium is refreshed as needed to remove dead cells and debris (every 1 to 2 days).

LIF: leukaemia inhibitory factor, added to standard reprogramming medium
decline in beating colony number [1]: ~25 fold
onset of beating [1]: four-day delay
gene expression of Sox1, Pax6, Nanog, Rex1 (secondary MEFs; day 9): down-regulation of Sox1 and Pax6 with concomitant up-regulation of Nanog and Rex1
number of PLZF-expressing colonies (secondary MEFs; day nine, as little as one day LIF exposure): clearly decreased
Sox17, T, and FGF5 expression (secondary MEFs; days 9, 11, and 13): increased
number of SSEA1-expressing cells (secondary MEFs; flow cytometry): increases

CC(C)NCC(O)c1ccc(O)c(O)c1 (stereo not drawn) [isoproterenol]
decay period (τ) of calcium transients [2]: shortened
frequency of spontaneous calcium transients [2]: significantly increased
expression of Brachyury T, Flk-1, GATA-4 and MESP1 (R1 ES cells [3]): increased
cardiac differentiation / percentage of beating colonies (R1 ES cells [4]): even more potent cardiac inducing effect than BayK 8644

C[N+](C)(C)CCOC(N)=O [carbachol]
decay period (τ) of calcium transients [2]: opposite effects
frequency of spontaneous calcium transients [2]: opposite effects

Reference: patent publication US9556417B2, “Reprogramming of cells to a new fate” (The Scripps Research Institute, priority 2010, dated 2017)
